According to BigSolDB 2.1:

CCO.C[C@H]1c2cccc(O)c2C(O)=C2C(=O)[C@]3(O)C(O)=C(C(N)=O)C(=O)[C@@H](N(C)C)[C@@H]3[C@@H](O)[C@@H]21.C[C@H]1c2cccc(O)c2C(O)=C2C(=O)[C@]3(O)C(O)=C(C(N)=O)C(=O)[C@@H](N(C)C)[C@@H]3[C@@H](O)[C@@H]21.Cl.Cl.O
Details	solubility (mole fraction)
in ethanol, 278.15 K	0.00199
in ethanol, 283.15 K	0.00222
in ethanol, 288.15 K	0.00248
in ethanol, 293.15 K	0.00278
in ethanol, 298.15 K	0.00313
in ethanol, 302.85 K	0.00327
in ethanol, 307.25 K	0.00364
in ethanol, 312.95 K	0.00409
in ethanol, 318.15 K	0.0047
in ethanol, 323.05 K	0.00522
in methanol, 278.15 K	0.0138
in methanol, 283.15 K	0.015
in methanol, 288.15 K	0.016
in methanol, 293.15 K	0.0174
in methanol, 298.15 K	0.0198
in methanol, 302.85 K	0.0251
in methanol, 307.25 K	0.0292
in methanol, 312.95 K	0.0332
in methanol, 318.15 K	0.0402
in methanol, 323.05 K	0.044
in n-propanol, 278.15 K	0.000862
in n-propanol, 283.15 K	0.00101
in n-propanol, 288.15 K	0.00111
in n-propanol, 293.15 K	0.00133
in n-propanol, 298.15 K	0.00151
in n-propanol, 303.15 K	0.00174
in n-propanol, 309.75 K	0.00222
in n-propanol, 316.65 K	0.00273
in n-propanol, 322.55 K	0.00351
in water, 277.55 K	0.00128
in water, 283.05 K	0.00132
in water, 287.85 K	0.0014
in water, 292.95 K	0.00164
in water, 299.15 K	0.00214
in water, 302.35 K	0.00254
in water, 307.45 K	0.00306
in water, 313.25 K	0.00405
in water, 317.85 K	0.00534
in water, 323.05 K	0.00647
